From US20060251714A1, “Pharmaceutical formulations of amyloid inhibiting compounds” (priority 2005, published 2006)

Test: Gastrointestinal tolerability of capsules (solid dosage form)
Type: in vivo
Settings: solid dosage form (capsules, Table 2)
Protocol: Furthermore, the non-hygroscopic nature of the acid form makes it desirable as active pharmaceutical ingredient. To further protect against any possible gastrointestinal intolerance that could result from the acid form, the tablets are enteric-coated and a modified-release agent is added to control any rapid release of the drug in the stomach and the intestine, respectively.

With `NCCCS(=O)(=O)[O-].[Na+]` [3-amino-1-propanesulfonic acid sodium salt] the “gastrointestinal symptoms (i.e. nausea and vomiting)” value was “associated with gastrointestinal symptoms”.
